Article PMC11472313, “Development of Fragment-Based Inhibitors of the Bacterial Deacetylase LpxC with Low Nanomolar Activity” (Journal of Medicinal Chemistry, 2024)
Values after ≈ are worked out from the molar mass of the structure shown.

How the values were obtained:
[1] = tested on: E. coli LpxC (EcLpxC); conditions: cited from earlier work
[2] = tested on: P. aeruginosa LpxC (PaLpxC); conditions: cited from earlier work
[3] = molecular target: T1, LasB (Pseudomonas aeruginosa, UniProt Q02RJ6); conditions: cited from earlier work
T1 construct: The elastase LasB of P. aeruginosa is a secreted metalloprotease; endogenous in cells; host or cells: P. aeruginosa PA14 culture supernatant
T1 sequence (Q02RJ6 198-498): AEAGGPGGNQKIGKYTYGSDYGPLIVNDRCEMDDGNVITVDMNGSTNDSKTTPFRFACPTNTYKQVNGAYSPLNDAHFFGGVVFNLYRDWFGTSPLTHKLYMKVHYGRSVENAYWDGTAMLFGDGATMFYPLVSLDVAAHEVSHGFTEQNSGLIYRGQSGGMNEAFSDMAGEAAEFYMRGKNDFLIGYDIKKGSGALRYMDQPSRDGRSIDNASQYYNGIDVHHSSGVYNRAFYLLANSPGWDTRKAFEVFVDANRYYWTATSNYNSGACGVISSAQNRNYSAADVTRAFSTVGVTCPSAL

[4] = tested on: E. coli BL21(DE3); conditions: cited from earlier work
[5] = molecular target: T2, E. coli LpxC C63A (Escherichia coli, UniProt P0A725, C63A); conditions: versus (2R,3S)-10; cited from earlier work
T2 construct: made in house; host or cells: E. coli BL21(DE3)
T2 sequence (P0A725 whole entry C63A): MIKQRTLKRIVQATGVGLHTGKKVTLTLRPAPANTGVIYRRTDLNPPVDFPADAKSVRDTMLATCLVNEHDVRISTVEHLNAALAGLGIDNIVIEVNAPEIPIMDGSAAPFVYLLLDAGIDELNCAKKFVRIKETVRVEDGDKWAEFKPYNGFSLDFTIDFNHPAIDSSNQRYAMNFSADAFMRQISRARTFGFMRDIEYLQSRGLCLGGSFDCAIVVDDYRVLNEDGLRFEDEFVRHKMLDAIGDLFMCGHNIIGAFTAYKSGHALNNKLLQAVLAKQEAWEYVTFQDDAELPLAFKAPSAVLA

[6] = molecular target: T3, P. aeruginosa LpxC (Pseudomonas aeruginosa, UniProt P47205); test: LC–MS/MS-based determination of KM; format: biochemical; conditions: read-out: KM of the P. aeruginosa LpxC-catalyzed deacetylation; substrate 1, LC–MS/MS-based assay
T3 construct: made in house; host or cells: E. coli BL21(DE3)
T3 sequence (P47205 whole entry): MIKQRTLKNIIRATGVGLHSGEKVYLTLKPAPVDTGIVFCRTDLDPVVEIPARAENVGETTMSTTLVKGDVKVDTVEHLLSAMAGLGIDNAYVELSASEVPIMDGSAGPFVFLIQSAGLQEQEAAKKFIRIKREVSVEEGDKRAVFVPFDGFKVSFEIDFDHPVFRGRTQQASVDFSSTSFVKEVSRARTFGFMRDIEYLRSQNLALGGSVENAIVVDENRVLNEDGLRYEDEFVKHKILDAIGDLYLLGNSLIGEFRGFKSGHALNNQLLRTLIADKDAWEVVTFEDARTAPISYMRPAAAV
Source text: (§1) Generally, the LC–MS/MS-based method represents an alternative to analyze compounds, which cannot be tested in the fluorescence-based assay, like primary amines and intrinsically fluorescent compounds. Additionally, it offers the advantage that lower substrate concentrations (10%) are used in the established protocol compared to the fluorescence-based assay, in which the detection of respectively low product concentrations would be difficult to detect due to inherently high background fluorescence. […] Additionally, the KM of E. coli LpxC C63A could be determined using the LC–MS/MS-based method (Figure S8, Supporting Information, vide supra).
Determination of enzymatic parameters
The values of KM and vmax for the E. coli LpxC C63A- as well as the P. aeruginosa LpxC-catalyzed deacetylation of UDP-3-O-[(R)-3-hydroxymyristoyl]-N-acetylglucosamine (1) were determined using the conditions of the established LC-MS/MS-based enzyme assay.
The wells in a black, non-binding, 96-well fluorescence microplate (Greiner Bio One, Frickenhausen) were filled with 93 µL of varying concentrations of UDP-3-O-[(R)-3-hydroxymyristoyl]-N-acetylglucosamine (26.9 µM, 10.8 µM, 2.69 µM, 1.08 µM, 0.538 µM, 0.269 µM) in assay buffer (40 mM sodium morpholinoethanesulfonic acid (pH = 6.0), 80 µM dithiothreitol, 0.02% Brij 35). […]

[7] = molecular target: T2, E. coli LpxC C63A; test: LC–MS/MS-based determination of KM; format: biochemical; conditions: substrate 1, LC–MS/MS-based assay
Method: In order to determine the inhibitory activities of the compounds of interest toward E. coli LpxC, a fluorescence-based enzyme assay was deployed, in which the formed deacetylated natural product UDP-3-O-[(R)-3-hydroxymyristoyl]glucosamine (2) is transformed into a fluorescent isoindole with o-phthaldialdehyde and 2-mercaptoethanol.[48],[49] […] The KM of E. coli LpxC C63A was determined experimentally using a mass spectrometry-based LpxC assay (Figure S8, Supporting Information, vide infra).
as §1, with “supra). […]” for “supra).”
The values of KM and vmax for the E. coli LpxC C63A- as well as the P. aeruginosa LpxC-catalyzed deacetylation of UDP-3-O-[(R)-3-hydroxymyristoyl]-N-acetylglucosamine (1) were determined using the conditions of the established LC-MS/MS-based enzyme assay. […]

O=c1ccn([C@@H]2O[C@H](CO/N=C/c3ccc(O)c(O)c3O)[C@@H](O)[C@H]2O)c(=O)[nH]1 [1-68A, 1–68A]
IC50 [1]: 27000 nM

CC(O)(c1ccc(O)cc1)C(NC(=O)c1ccc(C#CC#Cc2ccc(N)cc2)cc1)C(=O)NO (centres unmarked) [3b]
Ki [1]: 0.024 nM

C[C@@](OCc1ccc(-c2ccccc2)cc1)(C(=O)NO)[C@@H](O)c1ccccn1 [5b]
IC50 [2]: 15 nM

C[C@@](OCc1ccc(-c2ccccc2)cc1)(C(=O)NO)[C@@H](O)c1cnc[nH]1 [5c]
IC50 [2]: 0.8 nM

Cc1cc([C@H](O)[C@](C)(OCc2ccc(-c3ccccc3)cc2)C(=O)NO)no1 [5d]
IC50 [2]: 0.4 nM

CCc1ccc(-c2ccc(C(=O)N[C@H](C(=O)NO)[C@@H](C)N)cc2)cc1 [7a]
PaLpxC: IC50 [2]: 0.0005 µg/mL

CCc1ccc(-c2ccc(C(=O)N[C@H](C(=O)NO)[C@@H](C)NCC(=O)O)cc2)cc1 [7b]
PaLpxC: IC50 [2]: 0.0004 µg/mL

CCc1ccc(-c2ccc(C(=O)N[C@H](C(=O)NO)[C@@H](C)NCc3ccccn3)cc2)cc1 [7d]
PaLpxC: IC50 [2]: 0.041 µg/mL

O=C(NO)[C@H](OCc1ccc(C#Cc2ccc(CN3CCOCC3)cc2)cc1)[C@H](O)COCc1ccccc1 [(2R,3R)-10]
LasB Inhibition at 20 μM [3]: n.i. (n.i.: <10% inhibition)

O=C(NO)[C@H](OCc1ccc(C#Cc2ccc(CN3CCOCC3)cc2)cc1)[C@@H](O)COCc1ccccc1 [(2R,3S)-10]
LasB Inhibition at 20 μM [3]: n.i. (n.i.: <10% inhibition) | MIC E. coli BL21(DE3) [4]: >64 µg/mL

O=C(NO)[C@@H](OCc1ccc(C#Cc2ccc(CN3CCOCC3)cc2)cc1)[C@@H](O)COCc1ccccc1 [(2S,3S)-10]
fold higher LpxC inhibitory activity than its (2R)-configured diastereomer [5]: about 3 fold | MIC E. coli BL21(DE3) [4]: 4.0 µg/mL (≈ 7.54 µM)

Cc1noc(C)c1COC[C@H](O)[C@H](OCc1ccc(C#Cc2ccc(CN3CCOCC3)cc2)cc1)C(=O)NO [(2S,3S)-40]
LasB Inhibition at 20 μM [3]: n.i. (n.i.: <10% inhibition)

CC(O)C(NC(=O)c1ccc(C#CC#Cc2ccc(N)cc2)cc1)C(=O)NO (centres unmarked) [LPC-011]
Ki [1]: 0.039 nM

CCCCCCCCCCCC(O)CC(=O)OC1C(O)C(CO)OC(OP(=O)(O)OP(=O)(O)OCC2OC(n3ccc(=O)[nH]c3=O)C(O)C2O)C1NC(C)=O [compound 1, UDP-3-O-[(R)-3-hydroxymyristoyl]-N-acetylglucosamine]
Km [6]: 4.7 µM | Km [7]: 3.6 µM
